Measured values from patent US20070161592A1, “Method of treating fear” (priority 2005, published 2007).

What was measured:
[1] = system: NR1/NR2A; conditions: cited from earlier work
[2] = system: pyramidal neurons in layer II/III of ACC slices; test: LTP induced by pairing training, whole-cell patch-clamp recordings in ACC slices; format: cell-based, mouse; conditions: for effect on LTP induced by pairing training: FIG. 3
Experimental: Experiments were performed in a recording chamber on the stage of an Axioskop 2FS microscope with infrared DIC optics for visualizing whole-cell patch clamp recordings. EPSCs were recorded from layer II-III neurons using an Axon 200B amplifier (Axon Instruments, CA) and stimulations were delivered using a bipolar tungsten stimulating electrode placed in layer V of the ACC. In hippocampal slices, EPSCs were evoked by stimulating the Schaffer collateral-commissural pathway. EPSCs were induced by repetitive stimulations at 0.02 Hz and neurons were voltage clamped at −70 mV. […] The first protocol involved paired presynaptic 80 pulses at 2 Hz with postsynaptic depolarization at +30 mV (referred to as pairing training). The second involved paired 3 presynaptic stimuli that caused 3 EPSPs (10 ms ahead) with 3 postsynaptic APs at 30 Hz, paired 15 times every 5 s (named as EPSPs-APs protocol). The third involved theta-burst stimulation (5 trains of burst with 4 pulses at 100 Hz, at 200 ms interval; repeated 4 times at intervals of 10 s; named as TBS). The NMDAR-mediated component of EPSCs was pharmacologically isolated in Mg^2+-free ACSF containing: CNQX (20 μM), glycine (1 μM) and picrotoxin (100 μM). […] Neurons were voltage clamped at −60 mV and NMDARs-mediated EPSCs were evoked at 0.05 Hz. Picrotoxin (100 μM) was always present to block GABAA receptor-mediated inhibitory synaptic currents. The access resistance was 15-30 MΩ and was monitored throughout the experiment. […] Results are expressed as means±SEM. Statistical comparisons were performed using the Student t-test.
Whole-cell patch-clamp recordings were conducted in visually identified pyramidal neurons in layer II/III of ACC slices. Pyramidal neurons were identified by injecting depolarized currents into neurons to induce action potentials. […] Pyramidal neurons were also identified based on the pyramid shape of their somata by putting Lucifer yellow into the intracellular solution (FIG. 1A).

[3] = system: NMDAR-mediated currents in the ACC; test: NMDAR-mediated EPSCs in the ACC; format: cell-based, mouse
Experimental: Coronal brain slices ([…]) from 6-8-week-old C57BL/6 mice, containing ACC or hippocampus, were prepared using standard methods (Wei et al., 2001). Slices were transferred to a submerged recovery chamber containing oxygenated (95% O2 and 5% CO2) artificial cerebrospinal fluid (ACSF) (in mM: 124 NaCl, 4.4 KCl, 2 CaCl2, 1 MgSO4, 25 NaHCO3, 1 NaH2PO4, 10 glucose) at room temperature for at least 1 h.
Experiments were performed in a recording chamber on the stage of an Axioskop 2FS microscope with infrared DIC optics for visualizing whole-cell patch clamp recordings. EPSCs were recorded from layer II-III neurons using an Axon 200B amplifier (Axon Instruments, CA) and stimulations were delivered using a bipolar tungsten stimulating electrode placed in layer V of the ACC. In hippocampal slices, EPSCs were evoked by stimulating the Schaffer collateral-commissural pathway. EPSCs were induced by repetitive stimulations at 0.02 Hz and neurons were voltage clamped at −70 mV. The recording pipettes (3-5 MΩ) were filled with solution containing (mM) 145 K-gluconate, 5 NaCl, 1 MgCl2, 0.2 EGTA, 10 HEPES, 2 Mg-ATP, and 0.1 Na3-GTP (adjusted to pH 7.2 with KOH). After obtaining stable EPSCs for 10 min, three kinds of LTP induction paradigms were used within 12 min after establishing the whole-cell configuration to prevent wash out effect on LTP induction (Tsvetkov et al., 2002). The first protocol involved paired presynaptic 80 pulses at 2 Hz with postsynaptic depolarization at +30 mV (referred to as pairing training). The second involved paired 3 presynaptic stimuli that caused 3 EPSPs (10 ms ahead) with 3 postsynaptic APs at 30 Hz, paired 15 times every 5 s (named as EPSPs-APs protocol). The third involved theta-burst stimulation (5 trains of burst with 4 pulses at 100 Hz, at 200 ms interval; repeated 4 times at intervals of 10 s; named as TBS). The NMDAR-mediated component of EPSCs was pharmacologically isolated in Mg^2+-free ACSF containing: CNQX (20 μM), glycine (1 μM) and picrotoxin (100 μM). The patch electrodes contained (in mM) 102 cesium gluconate, 5 TEA-chloride, 3.7 NaCl, 11 BAPTA, 0.2 EGTA, 20 HEPES, 2 MgATP, 0.3 NaGTP, and 5 QX-314 chloride (adjusted to pH 7.2 with CsOH). Neurons were voltage clamped at −60 mV and NMDARs-mediated EPSCs were evoked at 0.05 Hz. Picrotoxin (100 μM) was always present to block GABAA receptor-mediated inhibitory synaptic currents. The access resistance was 15-30 MΩ and was monitored throughout the experiment. Data were discarded if access resistance changed by more than 15% during an experiment. Results are expressed as means±SEM. Statistical comparisons were performed using the Student t-test.
One possible mechanism is that NR2B-containing receptors may contribute more to total NMDA currents in ACC synapses than in hippocampal synapses. […] Application of 0.1 μM or 0.4 μM NVP-AAM077 depressed total NMDAR-mediated currents by 59.0±4.3% (n=5) and 63.2±1.7% (n=6) in the ACC respectively (FIG. 5). On the other hand, application of 0.3 μM or 3 μM Ro25-6981 attenuated total NMDAR-mediated currents by 18.0±1.9% (n=5) and 18.1±3.4% (n=7) in the ACC respectively, showing that 0.3 μM Ro25-6981 was sufficient to block the NR2B-mediated currents (FIG. 5). This experiment was repeated in hippocampal CA1 neurons. […] However, unlike in the ACC, application of 0.3 μM Ro25-6981 alone potentiated, rather than blocked, total NMDAR-mediated currents by 51.3±16.4% in the hippocampus (FIG. 5).
The relative percentages of NR2A- and NR2B-mediated currents were determined by applying specific antagonists, NVP-AAM077 (0.4 μM) and Ro25-6981 (0.3 μM). The concentrations used here were based on the results from FIG. 5 and a recent study performed in the hippocampus (Liu et al., 2004). Application of NVP-AAMO77 depressed total NMDAR-mediated currents by 63.2±1.7% and the addition of Ro25-6981 to the same neuron further reduced currents by 13.7±1.4% (n=6) in the ACC (FIG. 6). […]

C[C@@H](CN1CCC(Cc2ccccc2)CC1)[C@@H](O)c1ccc(O)cc1 [Ro25-6981]
IC50 [1]: 52 µM | synaptic responses after pairing training (LTP), % of baseline ([2]; 0.3 μM): 132.8±7.4% | effect on LTP induced by pairing training ([2]; 0.3 μM): partially depressed | synaptic responses after pairing training (LTP), % of baseline ([2]; 3 μM): 126.8±7.5% | effect on LTP induced by pairing training ([2]; 3 μM): partially depressed | further reduction of total NMDAR-mediated currents ([3]; 0.3 μM Ro25-6981 added to the same neuron after 0.4 μM NVP-AAM077): 13.7±1.4% | depression of total NMDAR-mediated currents ([3]; 0.3 μM, applied alone or first): 18.0±1.9% | depression of total NMDAR-mediated currents ([3]; 3 μM): 18.1±3.4% | effect on total NMDAR-mediated currents ([3]; bath application of different doses, FIG. 5): depressed
